We go through two compounds from ChEMBL document CHEMBL3112495, “Diphenylpyridylethanamine (DPPE)-based aminoheterocycles as cholesteryl ester transfer protein inhibitors” (Bioorg Med Chem Lett, 2014).

Data set [1] can be described thus: Plasma concentration in hCETP/apo B-100 transgenic mouse at 30 mg/kg, po after 2 hrs. The class given is ADME, organism-based. More on the design: dose 30 mg/kg, route oral.
Data set [2] in a line: AUC in hCETP/apo B-100 transgenic mouse at 30 mg/kg, po. The class given is ADME, organism-based. More on the design: dose 30 mg/kg, route oral. The settings on record: plasma.
Data set [3] is described as follows: Plasma concentration in hCETP/apo B-100 transgenic mouse at 30 mg/kg, po after 4 hrs. The class given is ADME, organism-based. Details: dose 30 mg/kg, route oral.
The test system of the next data set is Mus musculus. The data set can be described thus: Inhibition of CETP in hCETP/apo B-100 transgenic mouse at 30 mg/kg, po after 8 hrs. The class given is functional.
A short description of data set [4]: Plasma concentration in hCETP/apo B-100 transgenic mouse at 30 mg/kg, po after 8 hrs. The class given is ADME, organism-based. Details: dose 30 mg/kg, route oral.
The nature of data set [5]: Metabolic stability of the compound in rat liver microsomes assessed as compound remaining after 10 mins. The class given is ADME. The settings on record: read-out: Stability.
The target in data set [6] is T1, Cholesteryl ester transfer protein (Homo sapiens, UniProt P11597).
T1 sequence (P11597 whole entry): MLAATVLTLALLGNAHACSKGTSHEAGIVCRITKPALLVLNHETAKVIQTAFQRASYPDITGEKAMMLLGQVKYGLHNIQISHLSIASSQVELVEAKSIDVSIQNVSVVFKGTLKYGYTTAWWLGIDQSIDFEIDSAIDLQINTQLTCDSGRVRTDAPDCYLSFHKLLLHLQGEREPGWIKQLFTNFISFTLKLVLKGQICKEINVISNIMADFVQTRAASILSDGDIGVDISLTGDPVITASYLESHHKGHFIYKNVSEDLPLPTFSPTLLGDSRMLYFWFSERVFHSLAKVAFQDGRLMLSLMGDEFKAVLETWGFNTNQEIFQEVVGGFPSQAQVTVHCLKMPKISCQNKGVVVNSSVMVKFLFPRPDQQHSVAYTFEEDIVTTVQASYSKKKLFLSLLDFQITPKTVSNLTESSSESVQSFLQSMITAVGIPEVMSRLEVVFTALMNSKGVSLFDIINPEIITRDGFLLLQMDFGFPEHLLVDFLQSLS
Put plainly: Inhibition of human recombinant CETP using [3H]-CE/HDL by scintillation proximity assay.

Data set [7] is described as follows: Metabolic stability of the compound in human liver microsomes assessed as compound remaining after 10 mins. The settings on record: read-out: Stability. The class given is ADME.
A short description of data set [8]: Metabolic stability of the compound in mouse liver microsomes assessed as compound remaining after 10 mins. The class given is ADME, Microsome. The settings on record: read-out: Stability.
Data set [9] concerns the target T1, Cholesteryl ester transfer protein. The data set can be described thus: Inhibition of CETP in human whole plasma using [3H]-CE/HDL after 10 mins.

`O=C(NC1CCCC1)N[C@@](Cc1ccccc1)(c1cc(F)cc(C(F)(F)F)c1)c1ccc(Cl)cn1` gave a concentration at 2 h in data set [1] of 1750 nM. Further, the AUC in data set [2] worked out at 5.71 µM·h. This compound came in with a concentration at 4 h in [3] of 1010 nM. In the data set with Mus musculus, this compound displayed an inhibition in vivo at 30 mg/kg of 56%.

Take `Fc1cc(C(F)(F)F)cc([C@@](Cc2ccccc2)(Nc2nc3c(s2)CCC3)c2ccc(Cl)cn2)c1`: the concentration at 8 h in data set [4] was 142 nM. For the same compound, the remaining at 10 min in [5] was determined as 56%; in [7], 73%; in data set [8], 33%. Besides, in data set [1], the concentration at 2 h was found to be 2530 nM. The AUC in [2] amounted to 8.18 µM·h. Moreover, the values for the IC50 in data set [6] and in data set [9] were 0.04 µM and 8.2 µM, respectively. Besides, the concentration at 4 h in [3] is 1240 nM. In addition, the inhibition in vivo at 30 mg/kg in the data set with Mus musculus is 26%.
